Measurements taken from publication PMC9233675, “Ru(II) photocages enable precise control over enzyme activity with red light” (Nature Communications, 2022).
Where a chain is given by its changes, count along the chain named. “And” between values parts separate entries of the source, which are not always exact repeats. Identical values can stand only once. Like-named read-outs stand apart in the source and are kept apart here.

Assays:
CYP1B1 = target: T1, CYP1B1 (Homo sapiens, UniProt Q16678); assay: In cell activity assay for CYP1B1 (7-ethoxyresorufin conversion, HEK293 T-Rex cells); settings: for IC50: n = 3; for % Enzyme Activity: dark; for % Enzyme Activity red light: 660 nm light (58.7 J/cm2)
T1 sequence (Q16678 1-543): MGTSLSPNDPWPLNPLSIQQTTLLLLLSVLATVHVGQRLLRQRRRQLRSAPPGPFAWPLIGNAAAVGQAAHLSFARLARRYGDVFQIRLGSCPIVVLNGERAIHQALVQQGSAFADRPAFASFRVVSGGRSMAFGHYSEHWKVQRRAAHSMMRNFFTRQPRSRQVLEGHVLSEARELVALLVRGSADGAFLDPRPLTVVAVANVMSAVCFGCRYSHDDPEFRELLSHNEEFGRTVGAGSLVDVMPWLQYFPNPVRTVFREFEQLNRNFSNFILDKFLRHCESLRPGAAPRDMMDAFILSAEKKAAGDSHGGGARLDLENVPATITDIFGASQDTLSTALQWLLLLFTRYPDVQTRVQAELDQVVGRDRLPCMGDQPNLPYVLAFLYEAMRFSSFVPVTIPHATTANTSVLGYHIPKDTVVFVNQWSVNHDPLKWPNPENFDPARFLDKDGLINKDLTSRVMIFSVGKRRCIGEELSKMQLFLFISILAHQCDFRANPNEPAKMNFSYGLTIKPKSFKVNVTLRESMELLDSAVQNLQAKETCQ
From the text: To rigorously assess the activity of inhibitors under biologically relevant conditions, an assay was developed for screening of CYP1B1 activity in live cells.
A stable HEK cell line was created with CYP1B1 expression under the control of tetracycline to facilitate regulated and titratable expression (see the Methods section for more details). […] The fluorogenic substrate, 7-ethoxyresorufin (REE), is a validated substrate for both CYPs and was used in both assays. Cytochrome P450 oxidoreductase (POR) is the required reductase partner for CYPs, and was also overexpressed in these systems to improve catalytic efficiency and the resulting signal for the assay.
Cell lines were generated in the HEK293 T-Rex cell line. Following transfection, cells were selected with 500 μg/mL Zeocin, and 7.5 μg/mL Blasticidin to create a stable pool. Inducible expression of CYP and POR was confirmed by immunoblot. […] The lines were maintained with 250 μg/mL Zeocin and 7.5 μg/mL Blasticidin to ensure continued selective pressure.
(§1) Cell lines were seeded onto Geltrex coated 96-well plates at 40,000 cells/well, and grown overnight in DMEM media containing 1 μg/mL tetracycline. The media was then replaced with Opti-MEM supplemented with 2% FBS and 1 μg/mL tetracycline. Compounds were serially diluted in Opti-MEM supplemented with 2% FBS and 1 μg/mL tetracycline and an equal volume of compound added to the cells (n = 3). Following a 1 h incubation, resorufin ethyl ether (REE; for CYP1B1 and 1A1) or dibenzylfluorescein (DBF; for 19A1) was added to the cells for a total concentration of 5 μM for REE and 1 μM for DBF. […] Dose–response curves were generated in Prism and normalized using the no-compound control (set as 100% activity) and the no-cell control (set as 0% activity; this value in the raw data reflects the background fluorescence of the dye alone).
For the light-activated compounds, the experiment was modified as follows: Cells were seeded and grown overnight as described above. Media was replaced with L-15 containing 1 μg/mL tetracycline; L-15 media was used in place of opti-MEM™ to maintain CO2 outside the incubator, and to prevent cellular damage from light. Compounds were serially diluted in L-15 with 1 μg/mL tetracycline and added to the cells followed by a 1 h incubation. […] REE or DBF was added as described above.

CYP1B1 D333N = target: T2, CYP1B1 D333N (Homo sapiens, UniProt Q16678, D333N); assay: In cell CYP1B1 activity assay, D333N variant; settings: for logSI D333N: log of the ratio of IC50 values mutant vs WT (Fig. 3c)
T2 sequence (Q16678 1-543 D333N): T1 sequence (Q16678 1-543) with D333N
From the text: (§2) Site directed mutagenesis was used to probe the importance of specific active-site contacts identified through the structural assessment (Fig. 3a, b) and simulations. In all cases, conservative mutations were made to maintain polar or hydrophobic character and approximate size. The aromatic residues that frame the inhibitor binding site, Phe143 and Phe231, were mutated to Leu to determine the importance of the π interactions. In addition, the Ser127 residue, located in the upper corner of the active site on the B-C loop, was chosen for mutation based on the simulations. This amino acid transiently contacts the inhibitors, but also forms a hydrogen bond with Asp326 of the I-helix, and thus may impact the position of this helix with regards to the B-C loop. […] Rather than directly mutating these residues in the I-helix, neighboring residues Gln332 and Asp333 were targeted, with the hope of interrupting amino acid interactions that position the helix within the active site.
(§3) The ratio of IC50 values for the WT vs. the mutant are shown in Fig. 3c and reflects the importance of the specific contact; the log of the value is used to aid in visualization.
as §1

CYP1B1 F134L = target: T3, CYP1B1 F134L (Homo sapiens, UniProt Q16678, F134L); assay: In cell CYP1B1 activity assay, F134L variant; settings: for logSI F134L: log of the ratio of IC50 values mutant vs WT (Fig. 3c)
T3 sequence (Q16678 1-543 F134L): T1 sequence (Q16678 1-543) with F134L
From the text: as §2, §3, §1

CYP1B1 S127A = target: T4, CYP1B1 S127A (Homo sapiens, UniProt Q16678, S127A); assay: In cell CYP1B1 activity assay, S127A variant; settings: for logSI S127A: log of the ratio of IC50 values mutant vs WT (Fig. 3c)
T4 sequence (Q16678 1-543 S127A): T1 sequence (Q16678 1-543) with S127A
From the text: as §2, §3, §1

[1] = Stability of compounds in rat liver microsomes; settings: for Remaining, % (NCF=60min): rat liver microsomes, no co-factor (no NADPH); for CLint scaled / Remaining, % (T=60min) / half-life / microsomal CLint: rat, liver microsomes
[2] = read-out: IC50 CYP1B1 Dark, Dark, conversion of 7-ethoxyresorufin (REE)
[3] = read-out: IC50 CYP1B1 Light, Light: 660 nm, 58.7 J/cm^2, REE

SMILES | IC50 (CYP1B1; [2]) | IC50 (CYP1B1; [3]) | logSI D333N (CYP1B1 D333N) | logSI F134L (CYP1B1 F134L) | logSI S127A (CYP1B1 S127A) | Remaining, % (NCF=60min) [1] | % Enzyme Activity (CYP1B1; CYP1B1, Log Conc 0.39794) | % Enzyme Activity (CYP1B1; CYP1B1, Log Conc 1) | % Enzyme Activity (CYP1B1; CYP1B1, Log Conc -0.20412) | % Enzyme Activity (CYP1B1; CYP1B1, Log Conc -0.80618) | % Enzyme Activity (CYP1B1; CYP1B1, Log Conc -1.40824) | % Enzyme Activity (CYP1B1; CYP1B1, Log Conc -2.0103) | % Enzyme Activity (CYP1B1; CYP1B1, Log Conc -2.61236) | % Enzyme Activity (CYP1B1; CYP1B1, Log Conc -3.21442) | % Enzyme Activity (CYP1B1; CYP1B1, Log Conc -3.81648) | % Enzyme Activity (CYP1B1; CYP1B1, Log Conc -4.41854) | % Enzyme Activity (CYP1B1; CYP1B1, Log Conc -5.0206) | % Enzyme Activity (CYP1B1; CYP1B1, Log Conc -5.62266) | CLint scaled [1] | Remaining, % (T=60min) [1] | further results
COc1ccc(/C=C/c2cc[n+]([Ru-4]345([n+]6ccccc6-c6cccc([n+]63)-c3cccc[n+]34)[n+]3c(cc(C(=O)[O-])c4ccccc43)-c3cc(C(=O)[O-])c4ccccc4[n+]35)cn2)c(OC)c1 [Compound 5] | 1730 nM | 17 nM | – | – | – | – | – | – | – | – | – | – | – | – | – | – | – | – | – | – | –
COc1cc(/C=C/c2ccc(OC)cc2OC)cc(OC)c1 [Compound 1, reference compound] | – | – | 2 | 1 | -1.5 | 63.7% | – | – | – | – | – | – | – | – | – | – | – | – | – | – | –
COc1ccc(C=Cc2ccncc2)c(OC)c1 [Compound 3] | – | – | 3.4 | 1.7 | 2.2 | 108.6% | -5.843% and -5.409% and -4.402% | -2.892% and -0.02892% and -1.938% | -3.135% and -2.441% and -3.396% | 0.2661% and -0.4628% and 0.4396% | 4.865% and 3.164% and 4.917% | 14.3229% and 13.9758% and 14.3403% | 26.2625% and 28.9697% and 28.1888% | 46.5321% and 40.302% and 39.9202% | 56.0248% and 55.8165% and 54.8794% | 73.8474% and 69.3527% and 65.1356% | 73.3268% and 74.7498% and 84.3119% | 93.7872% and 77.0753% and 77.7868% | 241 mL/min/kg | 1.4% | % Enzyme Activity (CYP1B1; CYP1B1, Log Conc -6.22472): 92.9716% and 93.6311% and 94.2558%; % Enzyme Activity (CYP1B1; CYP1B1, Log Conc -6.82678): 109.545% and 110.274% and 80.1816%; half-life [1]: 10.4 min; microsomal CLint [1]: 134 µL/min/mg
COc1ccc(/C=C/c2cc[n+]([Ru-4]345([n+]6ccccc6-c6cccc([n+]63)-c3cccc[n+]34)[n+]3c(cc(C(=O)[O-])c4ccccc43)-c3cc(C(=O)[O-])c4ccccc4[n+]35)cc2)c(OC)c1 [Compound 6] | 1900 nM | 0.3 nM | – | – | – | – | 37.9328% and 31.3874% | -5.282% and -4.5489% | 83.1691% and 81.3495% | 99.722% and 104.043% | 109.148% and 104.422% | 132.424% and 133.005% | 99.1913% and 124.791% | 127.496% and 122.416% | 106.293% and 106.621% | 105.939% and 103.083% | 100.606% and 105.459% | 101.365% and 96.184% | – | – | % Enzyme Activity red light (CYP1B1; CYP1B1, Log Conc 0.39794): -2.704% and -2.565%; % Enzyme Activity red light (CYP1B1; CYP1B1, Log Conc 1): -2.451% and -1.971%; % Enzyme Activity red light (CYP1B1; CYP1B1, Log Conc -0.20412): -2.413% and -1.554%; % Enzyme Activity red light (CYP1B1; CYP1B1, Log Conc -0.80618): -1.314% and -2.085%; % Enzyme Activity red light (CYP1B1; CYP1B1, Log Conc -1.40824): -2.274% and -3.677%; % Enzyme Activity red light (CYP1B1; CYP1B1, Log Conc -2.0103): 1.567% and 0.556%; % Enzyme Activity red light (CYP1B1; CYP1B1, Log Conc -2.61236): 27.0407% and 26.6869%; % Enzyme Activity red light (CYP1B1; CYP1B1, Log Conc -3.21442): 48.2689% and 41.5972%; % Enzyme Activity red light (CYP1B1; CYP1B1, Log Conc -3.81648): 59.7422% and 63.5835%; % Enzyme Activity red light (CYP1B1; CYP1B1, Log Conc -4.41854): 78.0389% and 65.5042%; % Enzyme Activity red light (CYP1B1; CYP1B1, Log Conc -5.0206): 106.495% and 94.3139%; % Enzyme Activity red light (CYP1B1; CYP1B1, Log Conc -5.62266): 87.0104% and 112.181%
COc1ccc(/C=C/c2ccncn2)c(OC)c1 [Compound 2] | – | – | 1.8 | 0.5 | 1.7 | 47.1% | -2.174% and -0.1456% and -1.116% | -3.921% and -4.348% and -1.514% | 3.833% and 3.484% and 3.455% | 23.2531% and 22.7484% and 23.8839% | 62.2283% and 59.9476% and 62.7038% | 95.9724% and 93.1289% and 92.7213% | 93.2065% and 104.319% and 107.88% | 101.359% and 108.531% and 103.62% | 105.357% and 94.6429% | – | – | – | 369 mL/min/kg | 0.3% | IC50 (CYP1B1 D333N): 5000 nM; Ratio IC50 (mutant)/ IC50 (WT), D333N (CYP1B1 D333N): 66; p IC50(uM) (CYP1B1; CYP1B1, negative log of the IC50 in μM): 1.119; IC50 (CYP1B1 F134L): 240 nM; Ratio IC50 (mutant)/ IC50 (WT), F134L (CYP1B1 F134L): 3; IC50 (CYP1B1 S127A): 3740 nM; Ratio IC50 (mutant)/ IC50 (WT), S127A (CYP1B1 S127A): 50; half-life [1]: 6.75 min; microsomal CLint [1]: 205 µL/min/mg
